In article PMC8088928 (Cancer Science, 2021):
pIC50, pKd: −log10 of the molar value.

How the values were obtained:
[1] = tested on: MKN‐45 cells; test: CCK‐8 cytotoxicity / proliferation assay; format: cell-based, human; conditions: for pIC50: Homo sapiens, MKN-45, 72 h, read-out: IC50 (cytotoxic activity); for Effect on proliferation of tumor cells (in words): MKN‐45 cells, 72 h, CCK‐8
[2] = target: HER2 kinase (Homo sapiens, UniProt P04626); test: Enzyme activity assay of HER2; format: biochemical
[3] = target: Recombinant Human Her2/ErbB2 Protein (Homo sapiens, UniProt P04626); test: Microscale thermophoresis; format: binding
[4] = target: Human PD‐L1 Fc Protein (Homo sapiens, UniProt Q9NZQ7); test: Microscale thermophoresis; format: binding
Sequence of Human PD‐L1 Fc Protein (Q9NZQ7 19-238 limits assumed): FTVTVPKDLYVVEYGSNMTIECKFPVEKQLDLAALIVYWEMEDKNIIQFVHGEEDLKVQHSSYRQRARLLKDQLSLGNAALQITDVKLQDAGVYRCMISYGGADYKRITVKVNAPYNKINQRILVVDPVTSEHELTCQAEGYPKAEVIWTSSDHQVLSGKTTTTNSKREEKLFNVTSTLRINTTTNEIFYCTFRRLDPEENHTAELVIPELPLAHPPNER

Sequence of Recombinant Human Her2/ErbB2 Protein (P04626 23-1255): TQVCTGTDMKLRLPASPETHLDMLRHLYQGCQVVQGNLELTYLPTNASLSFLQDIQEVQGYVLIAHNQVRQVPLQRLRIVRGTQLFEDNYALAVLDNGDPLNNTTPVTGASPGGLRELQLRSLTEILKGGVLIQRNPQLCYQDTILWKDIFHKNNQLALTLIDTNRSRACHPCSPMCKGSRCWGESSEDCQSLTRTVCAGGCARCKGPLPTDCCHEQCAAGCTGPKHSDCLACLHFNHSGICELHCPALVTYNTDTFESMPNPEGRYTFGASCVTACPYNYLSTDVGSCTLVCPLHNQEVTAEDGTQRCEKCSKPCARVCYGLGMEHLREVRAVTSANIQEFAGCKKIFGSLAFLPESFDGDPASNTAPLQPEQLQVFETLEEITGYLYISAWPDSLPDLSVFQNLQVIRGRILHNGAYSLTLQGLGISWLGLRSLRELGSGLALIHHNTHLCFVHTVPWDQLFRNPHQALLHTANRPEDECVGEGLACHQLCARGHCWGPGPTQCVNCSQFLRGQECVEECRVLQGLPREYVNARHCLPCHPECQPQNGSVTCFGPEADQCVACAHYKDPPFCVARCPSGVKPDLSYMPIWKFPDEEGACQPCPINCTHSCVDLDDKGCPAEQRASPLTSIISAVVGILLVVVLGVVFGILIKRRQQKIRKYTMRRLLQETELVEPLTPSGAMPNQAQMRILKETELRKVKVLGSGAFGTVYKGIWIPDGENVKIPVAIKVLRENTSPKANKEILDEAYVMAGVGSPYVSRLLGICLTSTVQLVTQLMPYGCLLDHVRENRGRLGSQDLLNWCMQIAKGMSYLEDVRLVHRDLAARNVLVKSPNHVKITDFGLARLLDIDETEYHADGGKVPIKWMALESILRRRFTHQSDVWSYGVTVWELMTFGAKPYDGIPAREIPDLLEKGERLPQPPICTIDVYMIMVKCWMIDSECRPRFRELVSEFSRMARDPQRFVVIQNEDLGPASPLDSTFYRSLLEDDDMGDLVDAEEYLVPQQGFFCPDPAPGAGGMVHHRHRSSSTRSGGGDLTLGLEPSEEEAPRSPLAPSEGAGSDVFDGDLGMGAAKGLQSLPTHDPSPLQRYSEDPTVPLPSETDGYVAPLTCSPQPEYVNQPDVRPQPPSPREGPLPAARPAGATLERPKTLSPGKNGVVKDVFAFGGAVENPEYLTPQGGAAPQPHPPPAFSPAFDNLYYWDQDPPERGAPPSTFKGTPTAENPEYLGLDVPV
Sequence of HER2 kinase (P04626 23-1255): as above

## O=c1c(O)c(-c2ccc(O)c(O)c2)oc2cc(O)cc(O)c12 [Quercetin]
[1]
  pIC50: 4.72
  Effect on proliferation of tumor cells (in words): potential antiproliferative effects
[2]
  pIC50: 6.24
[3]
  pKd: 6.31

## COc1ccc(-c2coc3cc(O)ccc3c2=O)cc1 [Formononetin]
[1]
  Effect on proliferation of tumor cells (in words): could not inhibit proliferation of tumor cells
[4]
  pKd: 6.45

## COc1cc(-c2oc3cc(O)cc(O)c3c(=O)c2O)ccc1O [Isorhamnetin]
[1]
  pIC50: 4.96
  Effect on proliferation of tumor cells (in words): potential antiproliferative effects
[4]
  pKd: 6.18

## O=c1c(-c2ccc(O)cc2)coc2cc(O)ccc12 [Daidzein]
[1]
  pIC50: 4.67
  Effect on proliferation of tumor cells (in words): potential antiproliferative effects
[3]
  pKd: 5.43
